Laboratory results as given in paper PMC7048775, “Single-molecule imaging of PI(4,5)P2 and PTEN in vitro reveals a positive feedback mechanism for PTEN membrane binding” (Communications Biology, 2020).

How the values were obtained:
PTEN (PTEN-Halo) [1] = target: T1, PTEN (PTEN-Halo) (Dictyostelium discoideum, UniProt Q8T9S7); test: single-molecule TIRF imaging on supported planar lipid bilayer, dissociation curve; settings: 10 mol% PI(4,5)P2 in DOPC bilayer, pH 8.0, 300 mM NaCl, 21 °C; membrane dissociation of protein, two binding states; no affinity constant
T1 sequence (Q8T9S7 1-533): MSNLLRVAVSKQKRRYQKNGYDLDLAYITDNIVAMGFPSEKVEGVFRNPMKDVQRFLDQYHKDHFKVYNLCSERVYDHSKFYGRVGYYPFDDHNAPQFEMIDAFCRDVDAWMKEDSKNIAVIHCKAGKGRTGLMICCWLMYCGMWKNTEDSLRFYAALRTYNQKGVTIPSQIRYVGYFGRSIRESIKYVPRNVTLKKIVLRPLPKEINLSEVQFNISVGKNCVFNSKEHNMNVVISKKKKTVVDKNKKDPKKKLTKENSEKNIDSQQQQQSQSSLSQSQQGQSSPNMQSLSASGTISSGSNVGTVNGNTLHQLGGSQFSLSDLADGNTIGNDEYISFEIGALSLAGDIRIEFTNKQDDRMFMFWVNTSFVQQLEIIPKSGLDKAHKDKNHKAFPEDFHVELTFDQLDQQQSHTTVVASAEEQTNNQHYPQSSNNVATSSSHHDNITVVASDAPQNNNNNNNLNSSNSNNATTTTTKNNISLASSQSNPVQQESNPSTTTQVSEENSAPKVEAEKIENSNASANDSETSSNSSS

PTEN (PTEN-Halo) [2] = target: T2, PTEN (PTEN-Halo) (Dictyostelium discoideum, UniProt Q8T9S7, R47A); test: as above; type: binding; settings: 10 mol% PI(4,5)P2 in DOPC bilayer, pH 8.0, 300 mM NaCl, 21 °C
T2 sequence (Q8T9S7 whole entry R47A): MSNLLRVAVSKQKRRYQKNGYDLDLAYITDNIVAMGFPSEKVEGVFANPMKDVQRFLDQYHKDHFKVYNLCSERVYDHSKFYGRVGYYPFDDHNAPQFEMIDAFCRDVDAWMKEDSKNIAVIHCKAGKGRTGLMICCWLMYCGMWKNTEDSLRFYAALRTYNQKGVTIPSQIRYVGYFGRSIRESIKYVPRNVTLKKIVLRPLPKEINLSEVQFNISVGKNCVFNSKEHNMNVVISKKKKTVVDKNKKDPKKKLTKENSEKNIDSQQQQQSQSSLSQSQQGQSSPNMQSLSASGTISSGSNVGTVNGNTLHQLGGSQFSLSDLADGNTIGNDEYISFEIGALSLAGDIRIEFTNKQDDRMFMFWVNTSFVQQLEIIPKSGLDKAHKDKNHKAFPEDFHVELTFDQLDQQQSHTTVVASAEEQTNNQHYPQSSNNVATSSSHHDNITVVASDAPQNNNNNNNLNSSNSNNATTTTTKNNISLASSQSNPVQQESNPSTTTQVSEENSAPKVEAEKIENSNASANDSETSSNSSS

PTEN (PTEN-Halo) [3] = target: PTEN (PTEN-Halo) (Dictyostelium discoideum, UniProt Q8T9S7, K11A/K13A/R14A/R15A); test: phosphate release, BIOMOL Green, absorbance […] nm; type: biochemical; settings: 5 nmol substrate in 50 μL, pH 8.0, 2 mM DTT, 21 °C, 2 h
Sequence of PTEN (PTEN-Halo) (Dictyostelium discoideum, UniProt Q8T9S7, K11A/K13A/R14A/R15A) (Q8T9S7 whole entry K11A/K13A/R14A/R15A): as the sequence (Q8T9S7 whole entry R47A) above, with K11A, K13A, R14A, R15A, A47R counted along it

PTEN (PTEN-Halo) [4] = target: T2, PTEN (PTEN-Halo); test: phosphate release, BIOMOL Green, absorbance […] nm; type: biochemical; settings: 5 nmol substrate in 50 μL, pH 8.0, 2 mM DTT, 21 °C, 2 h

SMILES | average dissociation rate constant k (PTEN (PTEN-Halo) [1]) [s⁻¹] | average dissociation rate constant k (PTEN (PTEN-Halo) [2]) | phosphate release, BIOMOL Green, absorbance 620 nm (PTEN (PTEN-Halo) [3]) | phosphate release, BIOMOL Green, absorbance 620 nm (PTEN (PTEN-Halo) [4])
CCCCCCCC/C=C\CCCCCCCC(=O)OC[C@H](COP(=O)(O)O[C@@H]1[C@H](O)[C@H](O)[C@@H](OP(=O)(O)O)[C@H](OP(=O)(O)O)[C@H]1O)OC(=O)CCCCCCC/C=C\CCCCCCCC [PI(4,5)P2, 1,2-dioleoyl-sn-glycero-3-phospho-(1′-myo-inositol-4′,5′-bisphosphate)] | 15.9 ± 2.8 | both mutants exhibited faster dissociation than wild type |  | 
CCCCCCCC(=O)OC[C@H](COP(=O)(O)O[C@H]1[C@H](O)[C@@H](OP(=O)(O)O)[C@H](OP(=O)(O)O)[C@@H](OP(=O)(O)O)[C@H]1O)OC(=O)CCCCCCC [diC8-PI(3,4,5)P3] |  |  | Phosphatase activities of the mutants were comparable to each other | Phosphatase activities of the mutants were comparable to each other
